Molecules are shown by their SMILES.

A short description of experiment [1]: Body weight and fasting plasma analyses in Zucker rats. Format: in vivo, rat. The following applies: obese Zucker (fa/fa) rats, post-Rx, pioglitazone 10 mg/kg/day in chow for 3 weeks; average ± standard error. The text has this: Male C57Bl/6J WT mice (cat #000664) and OPN KO mice (B6.Cg-Spp1tm2blh/J, cat #004936) were purchased from Jackson Laboratories. This OPN KO mouse line has been backcrossed into the C57Bl/6J background >10 generations. Mouse diets were as follows: normal chow diet (12% kcal from fat; Purina 5001, LabDiet) and high fat diet (41% kcal from fat; TD96132, Harlan Teklad). Mice were 4-6 months of age and age-matched in all studies. Male lean Zucker (fa/+) and fatty Zucker (fa/fa) rats were purchased from Charles River. […] All rats were nine weeks of age at time of terminal metabolic studies and tissue harvest. All animals were housed 1-3 per cage under controlled light (12:12 light:dark) and climate conditions. Animals had unlimited access to food and water.
(§1) Insulin sensitivity was determined by hyperinsulinemic euglycemic clamp, as previously published (Hevener, A L, et al., 2001, Diabetes 50, 2316-2322). […] Plasma glucose specific activity was measured after deproteinization with barium hydroxide and zinc sulfate (Revers, R R, 1984, J Clin Invest 73, 664-672). Hepatic glucose output (HGO) and glucose disposal rate (GDR) were calculated for the basal period and the steady-state portion of the glucose clamp using the Steele equation for steady-state conditions (Steele R. Influences of glucose loading and of injected insulin on hepatic glucose output. Ann N Y Acad Sci 82: 420-430, 1959). […]
Plasma insulins were measured by radioimmune assay kit (Linco Research, St. Charles, Mo.). Plasma FFA levels were measured enzymatically using a commercially available kit (NEFA C; Wako Chemicals USA). Triglycerides were measured using the Triglyceride-SL Assay (Diagnostic Chemicals Ltd.). Cholesterol was measured using the Chol kit and Roche/Hitachi analyzer (Roche). Tissue lysates were analyzed by SDS-PAGE, western blotting and chemiluminescence and by ELISA. Signal intensities of chemiluminescence autoradiographs were densitometrically quantified using a digital Kodak 3D Imagestation and associated digital image analysis software (Kodak, New. Haven, Conn.). […]

A short description of experiment [2]: Hyperinsulinemic euglycemic clamp in Zucker rats (rate of glucose disposal, Rd). In kind it is in vivo, rat. The following applies: obese Zucker (fa/fa) rats, post-Rx, pioglitazone 10 mg/kg/day in chow for 3 weeks; average ± standard error. The protocol: Peripheral insulin sensitivity (measured as the rate of glucose disposal, Rd) of the rat and human groups was measured using the hyperinsulinemic euglycemic clamp procedure. Clinical characteristics of the rats and humans are detailed in Table 1. OPN expression in adipose tissue was elevated in obese, insulin resistant rats (17-fold) and humans (4.6-fold) compared to insulin sensitive lean controls. […] In fact, when the pre-treatment patient data was combined, there was a significant correlation between adipose tissue OPN RNA levels and Rd (FIG. 1C).
Male C57Bl/6J WT mice (cat #000664) and OPN KO mice (B6.Cg-Spp1tm2blh/J, cat #004936) were purchased from Jackson Laboratories. […]
as §1

A short description of experiment [3]: Hyperinsulinemic-euglycemic clamp in human patients (rate of glucose disposal, Rd). Format: in vivo. The following applies: obese, insulin resistant patients, post-Rx, pioglitazone 45 mg/day for 3 months; average ± standard error.
Experiment [4] is described as follows: BMI and fasting plasma analyses in human patients. Format: in vivo. The following applies: post-Rx, pioglitazone 45 mg/day for 3 months, average ± standard error. The protocol:
Baseline plasma samples were drawn and hyperinsulinemic-euglycemic clamps were performed in the morning after a 10 hr fast as previously described (Frias, J P et al., 2000, Diabetes Care 23, 64-69; Yu, J G et al., 2002, Diabetes 51, 2968-2974). The experimental protocol was approved by the Institutional Review Board of the University of California, San Diego. Informed written consent was obtained from each subject.
Plasma insulins were measured by radioimmune assay kit (Linco Research, St. Charles, Mo.). Plasma FFA levels were measured enzymatically using a commercially available kit (NEFA C; Wako Chemicals USA). Triglycerides were measured using the Triglyceride-SL Assay (Diagnostic Chemicals Ltd.). Cholesterol was measured using the Chol kit and Roche/Hitachi analyzer (Roche). Tissue lysates were analyzed by SDS-PAGE, western blotting and chemiluminescence and by ELISA. Signal intensities of chemiluminescence autoradiographs were densitometrically quantified using a digital Kodak 3D Imagestation and associated digital image analysis software (Kodak, New. Haven, Conn.). IL-1β, IL-12p70, IFNγ, IL-6, IL-10, Cxcl1 and TNFα levels in plasma and tissue lysates were measured using a multiplex (7-plex) ELISA (Meso Scale Discovery).

The mark [5] stands for this setting: lean, insulin sensitive patients.
The mark [6] stands for this setting: obese, insulin resistant patients.

For the compound `CCc1ccc(CCOc2ccc(CC3SC(=O)NC3=O)cc2)nc1` (stereo not shown) [pioglitazone], the “Fasting plasma free fatty acids” value in experiment [1] is 0.69 ± 0.29 mmol/L; in experiment [4] (setting [5]), 414 ± 90 µM; in experiment [4] (setting [6]), 434 ± 59 µM. Moreover, the Fasting plasma glucose is 124.8 ± 4.0 ^ mg/dL in experiment [1], 87.6 ± 3.1 mg/dL in experiment [4] (setting [5]) and 91.7 ± 2.5 mg/dL in experiment [4] (setting [6]). Moreover, the Fasting plasma triglyceride in experiment [1] is 108.0 ± 16.1 mg/dL; in experiment [4] (setting [5]), 76.0 ± 9.2 mg/dL; in experiment [4] (setting [6]), 137.7 ± 7.2 mg/dL. In addition, the “Glucose disposal, Rd” value in experiment [2] was determined as 30.6 ± 2.9 mg/kg/min; in experiment [3] it was 5.9 ± 0.5 mg/kg/min. Further, the Fasting plasma insulin in experiment [4] (setting [5]) was determined as 10.1 ± 2.2 pmol/L; in experiment [4] (setting [6]), 13.6 ± 1.6 pmol/L.
